The subject of data set [1] is Bacillus atrophaeus spores. The experiment in a line: BI spore strip viability test, strips inside wall cavities during ClO2 fumigation. In kind it is cell-based. The following applies: Bacillus atrophaeus spore strips in wall cavities; incubated seven days; both positive controls grew. The text has this:
BI Spore Strips—BI spore strips, each containing an approximate 2.5×103 titer of B. atrophaeus spores, were placed within wall cavities of the structure at the same 20 locations where wallboard samples had been collected, prior to insertion of the 2-inch expansion plugs. The B. atrophaeus species was selected due to its historical use as a biological indicator for ClO2 fumigations
Spore strips are thin cellulose pads that have been impregnated with a defined titer of bacterial spores. Each spore strip is encased in a Tyvek® pouch to allow for effective penetration of fumigant gas yet protect the strip from contamination by external sources. The BIs were obtained from SGM Biotech Inc., 10 Evergreen Drive, Suite E, Bozeman, Mont. (Lot #ACD-113e). All BIs were supplied from the same product batch in order to ensure uniformity in spore titer. Relevant production QA/QC data for the specific lot number have been kept on file for future reference.
All BIs were retrieved promptly following fumigation and sent to Sabre's Slingerlands, N.Y. laboratory facility for analysis. Each spore strip was aseptically placed in a growth media tube containing 15 milliliters of trypticase soy broth (BD Diagnostics product #221823, Lot # 7337460) and incubated at 37 degrees Centigrade. Spore strips were evaluated daily for the presence or absence of indicator organism growth for a total of seven days. […]

A further data set concerns SRBs and sulfur bacteria. The experiment in a line: Chlorine dioxide fumigation of Chinese wallboard, SRB kill. In kind it is cell-based. The following applies: 65% RH and 65° F., enclosed structure. The protocol: Two square ([…]) samples of ⅝ inch Chinese wall board are collected from the structure that reported odor issues from different areas of the structure. […] The samples are split into four 25 cm×25 cm squares with the exposed ends of the sheetrock taped and painted with the same paint used within the structure. Two squares from each sample are placed into a chlorine dioxide fumigation chamber and fumigated with chlorine dioxide to a CT value of 9000 ppmv hours at 65% RH and 65° F. The other two squares from each sample are held in sealed bags as test blanks.
Upon completion of the test, each of the samples can be sampled as follows: Each core sample is homogenized in 10 ml of an anaerobic SRB broth, and 1 ml of the broth is transferred to 10 ml of broth in an anaerobic container and diluted serially out to a 104th dilution. The broth bottles are incubated at 25° C. for 21 days. Each day growth is recorded, and a lab blank negative control is performed on the initial broth.

For data set [2] the following is noted: after fumigation, visual.
Protocol: The corrosivity potential of ClO2 on metals and bleaching potential of ClO2 on household carpeting were evaluated through pre- and post treatment visual observations made throughout the structure.
Corrosivity potential was assessed by observation of typical metal items present within the structure (e.g. screws, door hinges, HVAC system components, etc.). […] Each piece of copper was “scuffed” clean prior to fumigation to ensure that any changes in the metal due to ClO2 exposure would be readily recognizable. Photographs were taken of the copper pipe pieces before and after treatment to document visual observations made.
Data set [3] relates to sulfate-reducing bacteria (SRBs). Description: SRB growth test (presence/absence) on unpainted wallboard paper before and after ClO2 fumigation of a house. The following applies: 20 wall and ceiling cavity locations, 12 of 20 positive before treatment; 13 hours, CT 5336-9727 ppmv-hours, about 45-52% RH. In kind it is cell-based. The protocol:
SRBs—The efficacy of ClO2 gas in eliminating SRBs from Chinese wallboard material was evaluated by collecting samples of unpainted wallboard paper located inside wall cavities of the home prior to, and immediately after, ClO2 exposure. Unpainted wallboard paper from wall cavities was chosen for SRB testing because preliminary laboratory work done at Sabre's Slingerlands, N.Y. laboratory facility had shown SRBs to be concentrated in this media.
Pre-treatment wallboard paper samples were collected by drilling a two-inch circular core at selected wall and ceiling locations. To avoid damaging vapor barriers present within the home, samples were not collected from any bathroom or laundry room locations. Sample locations were selected to be representative wall cavities within the structure most likely to contain conditions conducive to SRB growth. In total, 20 sample locations were selected. Nine were wall cores and eleven were ceiling cores.
The wallboard holes created through SRB sampling were each sealed using a two-inch rubber expansion plug in order to ensure that ClO2 gas would not penetrate into wall cavities as a consequence of sampling activities.
Post-treatment wallboard paper samples were collected by drilling an identical two-inch circular core approximately one inch away from each of the 20 pre-treatment sample locations. […]
In general terms: Sulforhodamine B stains cellular protein and so reports cell mass.

The conditions of data set [4]: after fumigation, side-by-side with untreated carpet.
Protocol: Bleaching potential of ClO2 was assessed by observation of carpet color and brightness throughout the structure both pre- and post-treatment. A piece of carpeting was also removed from a closet within the structure prior to fumigation and used for direct visual comparison with treated carpet following completion of the process.
Data set [5] can be described thus: Olfactory observation of reduced-sulfur odors before and after treatment. The following applies: Sabre personnel and independent observers; faint swimming pool like scent remained. An excerpt:
Subjective Odor Elimination—Reduced-sulfur compounds odors are extremely noxious and can be detected by the human olfactory (i.e. odor) sense at levels which are at or below the detection limits of sophisticated analytical instruments. As such, the olfactory senses of both Sabre personnel and independent observers were employed both pre- and post-treatment to gauge the effectiveness of ClO2 in ridding the test structure of reduced-sulfur compound odors.
Odor levels emanating from within the structure were observed both pre- and post-treatment for the “putrid” characteristic commonly associated with reduced-sulfur gases such as hydrogen sulfide, carbonyl sulfide and carbon disulfide that have been definitively shown by an FDOH study as being released from Chinese wallboard.

With `[O][Cl+][O-]` [ClO2, chlorine dioxide], in data set [1], the “Surrogate test organism growth on BI spore strips after ClO2 treatment” value was “negative for surrogate test organism growth”. The “CT of fumigation that eliminates growth of SRBs and sulfur bacteria and oxidizes reactive sulfides” value with SRBs and sulfur bacteria is reported as “about 9000 ppmv hours”. In addition, the “Corrosive effect on common metal items in the structure” value in data set [2] is “no corrosive effect was visible”. Also, the “Changes in scuffed copper pipe pieces” value in data set [2] (some pieces had a gold-like tint) was “no changes were observed”. Further, in data set [3], the “SRB growth after ClO2 treatment” value is reported as “negative for SRB growth”. The “Bleaching effect on carpet color and brightness” value in data set [4] was “no meaningful bleaching effect”. In addition, the “Reduced-sulfur gas odors after fumigation” value in data set [5] is “completely eliminated”.

The values are drawn from patent US20100278687A1, “R[…] GYPSUM BOARD USING GASEOUS CHLORINE DIOXIDE” (SABRE INTELLECTUAL PROPERTY HOLDINGS COMPANY, LLC., priority 2009, published 2010).
